# In patent US20240316069A1, “METHODS OF TREATING MULTIPLE SCLEROSIS” (ASCENTAGE PHARMA (SUZHOU) CO., LTD., priority 2020, published 2024):
# “Also recorded” adds a separate entry of the source.
# Legend:
# [1] = test system: MOG35-55 induced experimental autoimmune encephalomyelitis (EAE) model in C57BL/6 mice; experiment: Clinical scores in MOG35-55 induced EAE model; format: in vivo
# [2] = clinical application; cited from earlier work
# [3] = test system: MOG35-55 induced experimental autoimmune encephalomyelitis (EAE) model in C57BL/6 mice; experiment: Histopathologic assessment of spinal cord, H&E staining (inflammation) in EAE model; format: in vivo; settings: for H&E staining score: day 21, spinal cord, scoring 0 to 4
# Protocol: (§1) The mice were anesthetized with isoflurane and immunized with 300 μg MOG 35-55 peptide emulsified (1:1) in […] Freund's adjuvant with 600 μg Mycobacterium tuberculosis. Each mouse received 0.05 ml emulsion (s.c.) at four sites (back shoulder and tail root). The mice were further intraperitoneally injected with 250 μL pertussis toxin (1 μg/mL) at 0 h and 48 h post immunization. The day when MOG 35-55 peptide was injected was set as day 1.
# (§2) Mice in Group 1 were treated with vehicle for 20 days (po, qd, from day 1-20). Mice in Group 2, Group 3 and Group 4 were treated with 100 mg/kg Compound 4 for 20 days (po, qd, from day 1-20), 14 days (po, qd, from day 7-20) and 7 days (po, qd, from day 14-20) respectively. FTY720 was used as positive control which was orally administered to mice in Group 5 for 20 days (qd, from day 1-20). The protocols and procedures involving the care and use of animals were approved by the Institutional Animal Care and Use Committee (IACUC) at Bioduro (Shanghai, China). The information of each group is as follows.
# (§3) At the end of the study (day 21), all the animals were sacrificed by CO2, and the spinal cords were collected and fixed in 10% formalin for pathological analysis (H&E and LFB staining). The histopathological score was evaluated microscopically in a blinded manner.
# The inflammation of spinal cord was evaluated by H&E staining using a scoring system from 0 to 4: 0, no inflammatory cell infiltration; 1, inflammatory cell infiltration is limited to perivascular and […]; 2, small amount of inflammatory cell infiltration in the spinal cord; 3, medium number of inflammatory cell infiltration in the spinal cord; 4, large number of inflammatory cell infiltration in the spinal cord.
# [4] = test system: MOG35-55 induced experimental autoimmune encephalomyelitis (EAE) model in C57BL/6 mice; experiment: Histopathologic assessment of spinal cord, LFB staining (demyelination) in EAE model; format: in vivo; settings: for LFB staining score: day 21, spinal cord, scoring 0 to 4
# Protocol: as §1, §2, §3
# The structure and morphology of spinal cord was evaluated by LFB staining using a scoring system from 0 to 4: 0 represents for no demyelination; 1, a small range of demyelination; 2, 2-3 small range of demyelination; 3, 1-2 large range of demyelination; 4, large-scale demyelination involves more than 20% of white matter areas.
# [5] = test system: peripheral blood mononuclear cell (PBMC); experiment: Flow cytometry of PBMC lymphocyte subtypes in EAE model; format: in vivo, C57BL/6 mice; settings: 100 mg/kg; day 21
# [6] = 100 mg/kg po qd, 7 days (d14-d20)
# [7] = 100 mg/kg po qd, 14 days (d7-d20)
# [8] = 100 mg/kg po qd, 20 days (d1-d20)
compound,measurement,setting,value
"CCCCCCCCc1ccc(CCC(N)(CO)CO)cc1.Cl [FTY720, reference compound]","symptoms of multiple sclerosis (clinical score, result in words)","[1]; 1 mpk po qd x 20 d (d1-d20), Group 5, entire experiment",no mice developing symptoms of multiple sclerosis
same,cardiovascular toxicity,[2],obvious cardiovascular toxicity
same,H&E staining score,[3]; 1 mpk po qd x 20 d (d1-d20),0
same,LFB staining score,[4]; 1 mpk po qd x 20 d (d1-d20),0
"O=C(NS(=O)(=O)c1ccc(NC[C@H]2COCCO2)c([N+](=O)[O-])c1)c1ccc(N2CCN(CC3=C(c4ccc(Cl)cc4)CC4(CCC4)CC3)CC2)cc1Oc1cnc2[nH]ccc2c1 [Compound 4, (S)-N-((4-(((1,4-dioxan-2-yl)methyl)amino)-3-nitrophenyl)sulfonyl)-2-((1H-pyrrolo[2,3-b]pyridin-5-yl)oxy)-4-(4-((6-(4-chlorophenyl)spiro[3.5]non-6-en-7-yl)methyl)piperazin-1-yl)benzamide]",number of B lymphocytes (CD45+CD3-B220+) in the PBMC,[5],significantly reduced
same,number of CD4+ T lymphocytes (CD45+CD3+CD4+) in the PBMC,[5],significantly reduced
same,number of CD8+ T lymphocytes (CD45+CD3+CD8+) in the PBMC,[5],significantly reduced
same,number of T lymphocytes (CD45+CD3+) in the PBMC,[5],significantly reduced
same,number of double negative T lymphocytes (CD45+CD3+CD4-CD8−) in the PBMC,[5],significantly reduced
same,number of leukocytes (CD45+) in the PBMC,[5],significantly reduced
same,clinical score,"[1]; 100 mg/kg po qd, 14 days (d7-d20, Group 3), end of the study (day 21), scoring 0 to 5",2.00±0.58
same,clinical score of EAE (result in words),"[1]; 100 mg/kg po qd, either of the three regimens (20, 14, 7 days)",significantly reducing the clinical score of EAE; also recorded: reduced the clinical scores
same,H&E staining score,[3]; [6],2.10±0.41
same,H&E staining score,[3]; [7],1.11±0.33
same,H&E staining score,[3]; [8],2.00±0.39
same,H&E staining scores (result in words),"[3]; FIG. 3 legend, regimen not stated",reduced the H&E staining scores
same,LFB staining score,[4]; [6],1.30±0.37
same,LFB staining score,[4]; [7],1.33±0.44
same,LFB staining score,[4]; [8],1.80±0.29
same,LFB staining scores (result in words),"[4]; FIG. 2 legend, regimen not stated",reduced the LFB staining scores
